In US20230085307A1, “PYRIDAZINONE COMPOUND AND HERBICIDE” (NISSAN CHEMICAL CORPORATION, priority 2019, published 2023):

Key:
late watergrass [1] = assay: Test Example 1: herbicidal activity, application before weed generation under submerged conditions (Table 16, symbol A); type: in vivo, late watergrass (Echinochloa oryzicola); settings: amount of applied herbicide 320 g/ha
Outline: (§1)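 Submerged Wagner pots (alluvial soil, 4 cm water) sown with weed seeds and planted with 2.5-leaf rice seedlings; emulsifiable concentrate diluted in water applied to water surface on sowing day. Held in greenhouse at 25-30 °C; injury scored 0-5 by herbicidal rate after three weeks.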

barnyard grass [2] = assay: Test Example 3: herbicidal effect by foliage application, Wagner pot (Table 18, symbol H); type: in vivo, barnyard grass (Echinochloa crus-galli); settings: for herbicidal effect on barnyard grass (H): 320 g/ha
Outline: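 Plants were sown in alluvial soil held under 0.1–0.5 cm standing water and grown 14 days in a greenhouse at 25–30 °C. An emulsifiable formulation, water-diluted to the set dose, was then sprayed onto the foliage, and effects were scored three weeks later using previously defined criteria.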

barnyard grass [3] = assay: Test Example 4: herbicidal effect by soil treatment (Table 19, symbol H); type: in vivo, barnyard grass (Echinochloa crus-galli); settings: amount of applied herbicide 320 g/ha
Outline: (§2)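 Pre-emergence style soil spray: seeds under ~1.5 cm sterilized diluvial soil received a uniform coat of emulsion diluted to the predetermined herbicide amount. Greenhouse 25–30° C; readout at week three on previously defined criteria.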

redroot pigweed = assay: Test Example 5: herbicidal effect by foliage application, plastic box (Table 20, symbol N); type: in vivo, redroot pigweed (Amaranthus retroflexus); settings: foliage application, 320 g/ha; for N: redroot pigweed, herbicidal effect grade: three weeks after application
Outline: (§3)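 Plants were sown into sterilized diluvial soil under about 1.5 cm cover and kept in a greenhouse at 25° C. to 30° C. Fourteen days on, foliage received an even spray of the diluted emulsion. Herbicidal or crop effect was judged three weeks afterwards.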

velvetleaf = assay: Test Example 5: herbicidal effect by foliage application, plastic box (Table 20, symbol M); type: in vivo, velvetleaf (Abutilon theophrasti); settings: foliage application, 320 g/ha
Outline: as §3

Italian ryegrass [4] = assay: Test Example 5: herbicidal effect by foliage application, plastic box (Table 20, symbol K); type: in vivo, Italian ryegrass (Lolium multiflorum); settings: foliage application, 320 g/ha
Outline: as §3

wild oat [5] = assay: Test Example 4: herbicidal effect by soil treatment (Table 19, symbol I); type: in vivo, wild oat (Avena fatua); settings: amount of applied herbicide 320 g/ha
Outline: as §2

blackgrass [6] = assay: Test Example 5: herbicidal effect by foliage application, plastic box (Table 20, symbol J); type: in vivo, blackgrass (Alopecurus myosuroides); settings: foliage application, 320 g/ha
Outline: as §3

wild oat [7] = assay: Test Example 5: herbicidal effect by foliage application, plastic box (Table 20, symbol I); type: in vivo, wild oat (Avena fatua); settings: foliage application, 320 g/ha
Outline: as §3

Japanese bulrush [8] = assay: Test Example 2: herbicidal activity, application during weed generation under submerged conditions (Table 17, symbol B); type: in vivo, Japanese bulrush (Schoenoplectus juncoides); settings: for herbicidal effect rating, B: Japanese bulrush: AAH 320 g/ha, application during weed generation, submerged conditions
Outline: (§4)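 Wagner pot, alluvial soil, 4 cm flood; mixed sowing of all species; greenhouse 25° C.–30° C. Emulsifiable formulation, water-diluted to predetermined dose, applied to paddy water at 1–2 leaf stage. Effect rated at 3 wk using the earlier test's scoring criteria.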

chickweed = assay: Test Example 4: herbicidal effect by soil treatment (Table 19, symbol P); type: in vivo, common chickweed (Stellaria media); settings: amount of applied herbicide 320 g/ha
Outline: as §2

green foxtail = assay: Test Example 4: herbicidal effect by soil treatment (Table 19, symbol G); type: in vivo, green foxtail (Setaria viridis); settings: amount of applied herbicide 320 g/ha
Outline: as §2

late watergrass [9] = assay: Test Example 2: herbicidal activity, application during weed generation under submerged conditions (Table 17, symbol A); type: in vivo, late watergrass (Echinochloa oryzicola); settings: for herbicidal effect rating, A: late watergrass: AAH 320 g/ha, application during weed generation, submerged conditions
Outline: as §4

Japanese bulrush [10] = assay: Test Example 1: herbicidal activity, application before weed generation under submerged conditions (Table 16, symbol B); type: in vivo, Japanese bulrush (Schoenoplectus juncoides); settings: amount of applied herbicide 320 g/ha
Outline: as §1

persian speedwell = assay: Test Example 4: herbicidal effect by soil treatment (Table 19, symbol R); type: in vivo, Persian speedwell (Veronica persica); settings: amount of applied herbicide 320 g/ha
Outline: as §2

Italian ryegrass [11] = assay: Test Example 4: herbicidal effect by soil treatment (Table 19, symbol K); type: in vivo, Italian ryegrass (Lolium multiflorum); settings: amount of applied herbicide 320 g/ha
Outline: as §2

blackgrass [12] = assay: Test Example 4: herbicidal effect by soil treatment (Table 19, symbol J); type: in vivo, blackgrass (Alopecurus myosuroides); settings: amount of applied herbicide 320 g/ha
Outline: as §2

[13] = amount of applied herbicide 320 g/ha
[14] = evaluated 3 weeks after application
[15] = application during weed generation under submerged conditions, amount of applied herbicide 320 g/ha

Structure (SMILES) | Herbicidal effect, A: late watergrass (late watergrass [1]) | H: barnyard grass, herbicidal effect grade (barnyard grass [3]) | I: wild oat, herbicidal effect grade (wild oat [5]) | P: chickweed, herbicidal effect grade (chickweed) | G: green foxtail, herbicidal effect grade (green foxtail) | Herbicidal effect, B: Japanese bulrush (Japanese bulrush [10]) | K: Italian ryegrass, herbicidal effect grade (Italian ryegrass [11]) | herbicidal effect on H: barnyard grass (barnyard grass [2]; [13]) | herbicidal effect, H: barnyard grass (barnyard grass [3]) | N: redroot pigweed, herbicidal effect grade (redroot pigweed) | M: velvetleaf, herbicidal effect grade (velvetleaf; three weeks after application) | K: Italian ryegrass, herbicidal effect grade (Italian ryegrass [4]; three weeks after application) | herbicidal effect, I: wild oat (wild oat [5]) | J: blackgrass, herbicidal effect grade (blackgrass [6]; three weeks after application) | herbicidal effect, J: blackgrass (blackgrass [12]) | I: wild oat, herbicidal effect grade (wild oat [7]; three weeks after application) | herbicidal effect, P: chickweed (chickweed) | herbicidal effect, G: green foxtail (green foxtail) | herbicidal effect rating, A: late watergrass (late watergrass [9]) | herbicidal effect rating, B: Japanese bulrush (Japanese bulrush [8]) | also measured
Cc1nn(C)c(=O)c(-c2c(-c3ccc(Cl)cc3)sc3cccc(F)c23)c1O [11-001] | 3 (Herbicidal rate of 40% or more and less than 70%) | 0 (Herbicidal rate of 5% or less (almost no effect)) | 0 (Herbicidal rate of 5% or less (almost no effect)) | 4 (Herbicidal rate of 70% or more and less than 90%) | 0 (Herbicidal rate of 5% or less (almost no effect)) | 5 (Herbicidal rate of 90% or more (almost completely withered)) | 0 (Herbicidal rate of 5% or less (almost no effect)) | – | – | – | – | – | – | – | – | – | – | – | – | – | Herbicidal effect on H (barnyard grass), foliage application (barnyard grass [2]; [13]): 3 (Herbicidal rate of 40% or more and less than 70%); N (redroot pigweed) herbicidal effect grade (redroot pigweed; [14]): 5 (Herbicidal rate of 90% or more (almost completely withered)); M (velvetleaf) herbicidal effect grade (velvetleaf; [14]): 5 (Herbicidal rate of 90% or more (almost completely withered)); K (Italian ryegrass) herbicidal effect grade (Italian ryegrass [4]; [14]): 3 (Herbicidal rate of 40% or more and less than 70%); J (blackgrass) herbicidal effect grade (blackgrass [6]; [14]): 0 (Herbicidal rate of 5% or less (almost no effect)); I (wild oat) herbicidal effect grade (wild oat [7]; [14]): 0 (Herbicidal rate of 5% or less (almost no effect)); herbicidal effect grade, B: Japanese bulrush (Japanese bulrush [8]; [15]): 3 (Herbicidal rate of 40% or more and less than 70%); herbicidal effect grade, A: late watergrass (late watergrass [9]; [15]): 2 (Herbicidal rate of 20% or more and less than 40%); R: persian speedwell, herbicidal effect grade (persian speedwell): 5 (Herbicidal rate of 90% or more (almost completely withered))
CCCC(=O)Oc1c(C)nn(C)c(=O)c1-c1c(-c2ccc(F)cc2OC)sc2cc(F)ccc12 [3-010] | 5 (Herbicidal rate of 90% or more (almost completely withered)) | – | – | – | – | 4 (Herbicidal rate of 70% or more and less than 90%) | – | 5 (Herbicidal rate of 90% or more (almost completely withered)) | 3 (Herbicidal rate of 40% or more and less than 70%) | 5 (Herbicidal rate of 90% or more (almost completely withered)) | 5 (Herbicidal rate of 90% or more (almost completely withered)) | 4 (Herbicidal rate of 70% or more and less than 90%) | 4 (Herbicidal rate of 70% or more and less than 90%) | 5 (Herbicidal rate of 90% or more (almost completely withered)) | 4 (Herbicidal rate of 70% or more and less than 90%) | 5 (Herbicidal rate of 90% or more (almost completely withered)) | 4 (Herbicidal rate of 70% or more and less than 90%) | 3 (Herbicidal rate of 40% or more and less than 70%) | 3 (Herbicidal rate of 40% or more and less than 70%) | – | herbicidal effect, R: persian speedwell (persian speedwell): 5 (Herbicidal rate of 90% or more (almost completely withered)); herbicidal effect, K: Italian ryegrass (Italian ryegrass [11]): 4 (Herbicidal rate of 70% or more and less than 90%)
COc1cc(F)ccc1-c1sc2cc(C)c(C)cc2c1-c1c(O)c(C)nn(C)c1=O [5-101] | 3 (Herbicidal rate of 40% or more and less than 70%) | 0 (Herbicidal rate of 5% or less (almost no effect)) | 0 (Herbicidal rate of 5% or less (almost no effect)) | 0 (Herbicidal rate of 5% or less (almost no effect)) | 0 (Herbicidal rate of 5% or less (almost no effect)) | 3 (Herbicidal rate of 40% or more and less than 70%) | 4 (Herbicidal rate of 70% or more and less than 90%) | – | – | – | – | – | – | – | – | – | – | – | 0 (Herbicidal rate of 5% or less (almost no effect)) | 2 (Herbicidal rate of 20% or more and less than 40%) | herbicidal effect on barnyard grass (H) (barnyard grass [2]): 5 (Herbicidal rate of 90% or more (almost completely withered)); herbicidal effect on velvetleaf (M) (velvetleaf; three weeks after application): 4 (Herbicidal rate of 70% or more and less than 90%); herbicidal effect on Italian ryegrass (K) (Italian ryegrass [4]; three weeks after application): 4 (Herbicidal rate of 70% or more and less than 90%); herbicidal effect on blackgrass (J) (blackgrass [6]; three weeks after application): 4 (Herbicidal rate of 70% or more and less than 90%); J: blackgrass, herbicidal effect grade (blackgrass [12]): 0 (Herbicidal rate of 5% or less (almost no effect)); herbicidal effect on wild oat (I) (wild oat [7]; three weeks after application): 0 (Herbicidal rate of 5% or less (almost no effect))
COc1ccccc1-c1sc2cc(OCC3CC3(F)F)ccc2c1-c1c(O)c(C)nn(C)c1=O (stereo not shown) [3-131] | 5 (Herbicidal rate of 90% or more (almost completely withered)) | 2 (Herbicidal rate of 20% or more and less than 40%) | 3 (Herbicidal rate of 40% or more and less than 70%) | 4 (Herbicidal rate of 70% or more and less than 90%) | 4 (Herbicidal rate of 70% or more and less than 90%) | 5 (Herbicidal rate of 90% or more (almost completely withered)) | 5 (Herbicidal rate of 90% or more (almost completely withered)) | – | – | 5 (Herbicidal rate of 90% or more (almost completely withered)) | 4 (Herbicidal rate of 70% or more and less than 90%) | 5 (Herbicidal rate of 90% or more (almost completely withered)) | – | 5 (Herbicidal rate of 90% or more (almost completely withered)) | – | 5 (Herbicidal rate of 90% or more (almost completely withered)) | – | – | 5 (Herbicidal rate of 90% or more (almost completely withered)) | 3 (Herbicidal rate of 40% or more and less than 70%) | herbicidal effect on barnyard grass (H) (barnyard grass [2]): 5 (Herbicidal rate of 90% or more (almost completely withered)); J: blackgrass, herbicidal effect grade (blackgrass [12]): 4 (Herbicidal rate of 70% or more and less than 90%)
CCCC(=O)Oc1c(C)nn(C)c(=O)c1-c1c(-c2ccc(OC(C)C)cc2)sc2cc(F)ccc12 [3-020] | 3 (Herbicidal rate of 40% or more and less than 70%) | – | – | – | – | 3 (Herbicidal rate of 40% or more and less than 70%) | – | 4 (Herbicidal rate of 70% or more and less than 90%) | 0 (Herbicidal rate of 5% or less (almost no effect)) | 4 (Herbicidal rate of 70% or more and less than 90%) | 3 (Herbicidal rate of 40% or more and less than 70%) | 2 (Herbicidal rate of 20% or more and less than 40%) | 0 (Herbicidal rate of 5% or less (almost no effect)) | 2 (Herbicidal rate of 20% or more and less than 40%) | 0 (Herbicidal rate of 5% or less (almost no effect)) | 0 (Herbicidal rate of 5% or less (almost no effect)) | 0 (Herbicidal rate of 5% or less (almost no effect)) | 0 (Herbicidal rate of 5% or less (almost no effect)) | 1 (Herbicidal rate of 5% or more and less than 20%) | 0 (Herbicidal rate of 5% or less (almost no effect)) | herbicidal effect, K: Italian ryegrass (Italian ryegrass [11]): 0 (Herbicidal rate of 5% or less (almost no effect))
